From US6518243B1, “Desleucyl glycopeptide antibiotics and methods of making same” (Trustees of Princeton University, priority 1999, dated 2003)

What was measured:
E. faceium (ATCC 49624) = test: Zone of inhibition screen, 96 well agar array format;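 also: score 3 means fourfold and score 4 sixteenfold the reference zone size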; format: cell-based, E. faecium; conditions: zone of inhibition relative to 1 mg/ml stock solution of p-chlorobiphenylvancomycin
Outline: (§1)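 Compounds are screened one by one for antibacterial effect in an agar array of 96 wells, using the same set of strains throughout.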

E. Faecalis CL 4877 = test: MIC determination in BHI media, OD600; format: cell-based; conditions: BHI + 0.1% casamino acids, 18 hours at 37° C., ≧90% OD600 inhibition
Outline: (§2)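 Compounds are dissolved and serially diluted in DMSO, then combined with logarithmically growing cells adjusted to roughly 5×10^5 CFU/ml. Plates incubate 18 hours at 37° C before turbidity is measured on a microplate reader.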

E. faecium ATCC 49624 = test: MIC determination in BHI media, OD600; format: cell-based; conditions: BHI + 0.1% casamino acids, 18 hours at 37° C., ≧90% OD600 inhibition
Outline: as §2

E. faecium CL 4931 = test: MIC determination in BHI media, OD600; format: cell-based; conditions: BHI + 0.1% casamino acids, 18 hours at 37° C., ≧90% OD600 inhibition
Outline: as §2

S. aureus (ATCC 29213) = test: Zone of inhibition screen, 96 well agar array format; format: cell-based; set-up: scale not given here; conditions: zone of inhibition relative to 1 mg/ml stock solution of p-chlorobiphenylvancomycin
Outline: as §1

S aureus ATCC 29213 = test: MIC determination in BHI media, OD600; format: cell-based; conditions: BHI + 0.1% casamino acids, 18 hours at 37° C., ≧90% OD600 inhibition
Outline: as §2

S. Aureus ATCC 33591 = test: MIC determination in BHI media, OD600; format: cell-based; conditions: BHI + 0.1% casamino acids, 18 hours at 37° C., ≧90% OD600 inhibition
Outline: as §2

[1] = tested on: S. epidermidis (ATCC 12228); test: Zone of inhibition screen, 96 well agar array format; format: cell-based; set-up: scale not given here; conditions: zone of inhibition relative to 1 mg/ml stock solution of p-chlorobiphenylvancomycin
Outline: as §1

E. faecalis ATCC 29212 = test: MIC determination in BHI media, OD600; format: cell-based; conditions: BHI + 0.1% casamino acids, 18 hours at 37° C., ≧90% OD600 inhibition
Outline: as §2

Row | Compound | zone score, E. faecium ATCC 49624 (E. faceium (ATCC 49624)) | MIC E. faecalis CL 4877 (E. Faecalis CL 4877) [µg/mL] | MIC E. faecium ATCC 49624 (E. faecium ATCC 49624) [µg/mL] | MIC E. faecium CL 4931 (E. faecium CL 4931) [µg/mL] | zone score, S. aureus ATCC 29213 (S. aureus (ATCC 29213)) | MIC S. aureus ATCC 29213 (S aureus ATCC 29213) [µg/mL] | MIC S. aureus ATCC 33591 (S. Aureus ATCC 33591) [µg/mL] | zone score, S. epidermidis ATCC 12228 [1] | MIC E. faecalis ATCC 29212 (E. faecalis ATCC 29212) [µg/mL]
1 | C[C@H]1O[C@H](O[C@H]2[C@H](Oc3c4cc5cc3Oc3ccc(cc3Cl)[C@@H](O)[C@@H](NC(=O)[C@@H]3CC(OC(C)(C)C)CN3)C(=O)N[C@@H](CC(N)=O)C(=O)N[C@H]5C(=O)N[C@H]3C(=O)N[C@H](C(=O)N[C@@H](C(=O)O)c5cc(O)cc(O)c5-c5cc3ccc5O)[C@H](O)c3ccc(c(Cl)c3)O4)O[C@H](CO)[C@@H](O)[C@@H]2O)C[C@@](C)(NCc2ccc(-c3ccc(Cl)cc3)cc2)[C@H]1O (stereo partly drawn) [Compound 30] | 2 | 25 | 0.78 | 25 |  |  |  |  | 
2 | CC1OC(OC2C(Oc3c4cc5cc3Oc3ccc(cc3Cl)C(O)C3NC(=O)C(NC(=O)C5NC(=O)C(CC(N)=O)NC(=O)C(NC(=O)C(N)CCCCNC=O)C(O)c5ccc(c(Cl)c5)O4)c4ccc(O)c(c4)-c4c(O)cc(O)cc4C(C(=O)O)NC3=O)OC(CO)C(O)C2O)CC(C)(NCc2ccc(-c3ccc(Cl)cc3)cc2)C1O (stereo not drawn) [Compound 79] | 2 | 25 | 0.78 | 25 | 2 |  |  |  | 
3 | CN[C@H](CC(C)C)C(=O)N[C@H]1C(=O)N[C@@H](CC(N)=O)C(=O)N[C@H]2C(=O)N[C@H]3C(=O)N[C@H](C(=O)N[C@H](C(=O)O)c4cc(O)cc(O)c4-c4cc3ccc4O)[C@H](O)c3ccc(c(Cl)c3)Oc3cc2cc(c3O[C@@H]2O[C@H](CO)[C@@H](O)[C@H](O)[C@H]2O[C@H]2C[C@](C)(N)[C@H](O)[C@H](C)O2)Oc2ccc(cc2Cl)[C@H]1O [Compound 0, Vancomycin, reference compound] |  | > 250 | 1.25 | > 250 |  | 1.25 | 2.5 |  | 
4 | CN[C@H](CC(C)C)C(=O)N[C@H]1C(=O)N[C@@H](CC(N)=O)C(=O)N[C@H]2C(=O)N[C@H]3C(=O)N[C@H](C(=O)N[C@@H](C(=O)O)c4cc(O)cc(O)c4-c4cc3ccc4O)[C@H](O)c3ccc(c(Cl)c3)Oc3cc2cc(c3O[C@@H]2O[C@H](CI)[C@@H](O)[C@H](O)[C@H]2O[C@@H]2C[C@@](C)(NCc3ccc(-c4ccc(Cl)cc4)cc3)[C@@H](O)[C@@H](C)O2)Oc2ccc(cc2Cl)[C@H]1O [Compound 519] |  | > 25 | 0.78 | > 25 |  |  |  |  | 
5 | COCC(N)C(=O)NC1C(=O)NC(CC(N)=O)C(=O)NC2C(=O)NC3C(=O)NC(C(=O)NC(C(=O)O)c4cc(O)cc(O)c4-c4cc3ccc4O)C(O)c3ccc(c(Cl)c3)Oc3cc2cc(c3OC2OC(CO)C(O)C(O)C2OC2CC(C)(NCc3ccc(-c4ccc(Cl)cc4)cc3)C(O)C(C)O2)Oc2ccc(cc2Cl)C1O (stereo not drawn) [Compound 525] |  | 25 | 0.25 | 25 |  | 0.39 | 0.39 |  | 
6 | C[C@H](N)C(=O)N[C@H]1C(=O)N[C@@H](CC(N)=O)C(=O)N[C@H]2C(=O)N[C@H]3C(=O)N[C@H](C(=O)N[C@@H](C(=O)O)c4cc(O)cc(O)c4-c4cc3ccc4O)[C@H](O)c3ccc(c(Cl)c3)Oc3cc2cc(c3O[C@@H]2O[C@H](CO)[C@@H](O)[C@H](O)[C@H]2O[C@@H]2C[C@@](C)(NCc3ccc(-c4ccc(Cl)cc4)cc3)[C@@H](O)[C@@H](C)O2)Oc2ccc(cc2Cl)[C@H]1O [Compound 1] | 2 | 25 | 0.78 | 25 |  | 0.78 | 0.78 |  | 
7 | CC1OC(OC2C(Oc3c4cc5cc3Oc3ccc(cc3Cl)C(O)C3NC(=O)C(NC(=O)C5NC(=O)C(CC(N)=O)NC(=O)C(NC(=O)C(N)Cc5ccc(O)c([N+](=O)[O-])c5)C(O)c5ccc(c(Cl)c5)O4)c4ccc(O)c(c4)-c4c(O)cc(O)cc4C(C(=O)O)NC3=O)OC(CO)C(O)C2O)CC(C)(NCc2ccc(-c3ccc(Cl)cc3)cc2)C1O (stereo not drawn) [Compound 557] |  | 25 | 0.39 | 25 |  |  |  |  | 
8 | C[C@H](OC(C)(C)C)[C@@H](N)C(=O)N[C@H]1C(=O)N[C@@H](CC(N)=O)C(=O)N[C@H]2C(=O)N[C@H]3C(=O)N[C@H](C(=O)N[C@@H](C(=O)O)c4cc(O)cc(O)c4-c4cc3ccc4O)[C@H](O)c3ccc(c(Cl)c3)Oc3cc2cc(c3O[C@@H]2O[C@H](CO)[C@@H](O)[C@H](O)[C@H]2O[C@@H]2C[C@@](C)(NCc3ccc(-c4ccc(Cl)cc4)cc3)[C@@H](O)[C@@H](C)O2)Oc2ccc(cc2Cl)[C@H]1O [Compound 18] | 2 | 25 | 0.25 | 25 | 2 | 0.78 | 0.78 |  | 
9 | CC1OC(OC2C(Oc3c4cc5cc3Oc3ccc(cc3Cl)C(O)C3NC(=O)C(NC(=O)C5NC(=O)C(CC(N)=O)NC(=O)C(NC(=O)C(N)CC[S+](C)[O-])C(O)c5ccc(c(Cl)c5)O4)c4ccc(O)c(c4)-c4c(O)cc(O)cc4C(C(=O)O)NC3=O)OC(CO)C(O)C2O)CC(C)(NCc2ccc(-c3ccc(Cl)cc3)cc2)C1O (stereo not drawn) [Compound 81] | 2 | 25 | 0.78 | 25 |  | 0.78 |  | 2 | 
10 | CC1OC(OC2C(Oc3c4cc5cc3Oc3ccc(cc3Cl)C(O)C3NC(=O)C(NC(=O)C5NC(=O)C(CC(N)=O)NC(=O)C(NC(=O)CNC(=O)CNC(=O)c5ccc([N+](=O)[O-])cc5)C(O)c5ccc(c(Cl)c5)O4)c4ccc(O)c(c4)-c4c(O)cc(O)cc4C(C(=O)O)NC3=O)OC(CO)C(O)C2O)CC(C)(NCc2ccc(-c3ccc(Cl)cc3)cc2)C1O (stereo not drawn) [Compound 108] |  | > 25 |  | > 25 | 2 | 0.78 | 0.78 |  | 
11 | C[C@H]1O[C@H](O[C@H]2[C@H](Oc3c4cc5cc3Oc3ccc(cc3Cl)[C@@H](O)[C@@H](NC(=O)[C@H](N)COC(C)(C)C)C(=O)N[C@@H](CC(N)=O)C(=O)N[C@H]5C(=O)N[C@H]3C(=O)N[C@H](C(=O)N[C@@H](C(=O)O)c5cc(O)cc(O)c5-c5cc3ccc5O)[C@H](O)c3ccc(c(Cl)c3)O4)O[C@H](CO)[C@@H](O)[C@@H]2O)C[C@@](C)(NCc2ccc(-c3ccc(Cl)cc3)cc2)[C@H]1O [Compound 17] |  | 3.91 | 0.062 |  |  | 0.062 | 0.12 |  | 0.25
